Measurements reported in patent publication US20220288028A1, “A THERAPEUTIC APPROACH FOR TREATING NON-INFECTIOUS OCULAR IMMUNOINFLAMMATORY DISORDERS” (The Schepens Eye Research Institute, Inc., priority 2019, published 2022).
Where a name gives a salt, the structure may show the parent alone.

Columns and labels:
DED mice [1] = assay: Mouse model of DED, topical NK1R antagonist: corneal fluorescein staining (CFS); type: in vivo, C57BL/6 mice; settings: topical 1 μg/μl three times per day, day 4 to 14; at day 7, 10 and 14; vs untreated and PBS-treated; p<0.05
Excerpt: FIGS. 6A, 6B, 7C, 8A-8C, and 9A-9D show the results of evaluating the in vivo therapeutic efficacy of blocking SP signaling in animal models of DED and ocular redness. DED was induced by exposing wild-type mice to desiccating stress using a controlled environment chamber for 14 days. No any other manipulations were used in the model. After 4 days induction, a clinical overt disease developed in mice (art-recognized model) and then a topical NK1R antagonist of either CP-99,994 or L-733,060, 3×/day, started and lasted for 10 days (until day 14). Untreated or PBS-treated mice serve as controls. Clinical severity of the disease was evaluated by clinical fluorescein scoring (CFS) using the National Eye Institute/Industry NEI grading scheme. […]
Induction of Dry Eye Disease (DED): DED was induced by housing the mice in a low-humidity (relative humidity: <20%) controlled environment chamber (CEC) with constant airflow of 15 L/min and temperature of 21 to 23° C. for 14 days. […] Corneal epithelial disease was evaluated using fluorescein (Sigma-Aldrich) staining and scored using the National Eye Institute grading system (NEI, Bethesda, Md.; Chen Y. et al. IFN-gamma-Expressing TH17 Cells Are Required for Development of Severe Ocular Surface Autoimmunity. J Immunol 2017, 199:1163-9). […]

IL-17 = assay: Mouse model of DED, topical NK1R antagonist: real-time PCR of conjunctivae; type: in vivo, C57BL/6 mice; settings: topical 1 μg/μl three times per day; day 14; vs PBS; p=0.001
Procedure: Induction of Dry Eye Disease (DED): DED was induced by housing the mice in a low-humidity (relative humidity: <20%) controlled environment chamber (CEC) with constant airflow of 15 L/min and temperature of 21 to 23° C. for 14 days. Age- and sex-matched mice housed in room air conditions served as controls. Corneal epithelial disease was evaluated using fluorescein (Sigma-Aldrich) staining and scored using the National Eye Institute grading system (NEI, Bethesda, Md.; Chen Y. et al. IFN-gamma-Expressing TH17 Cells Are Required for Development of Severe Ocular Surface Autoimmunity. J Immunol 2017, 199:1163-9). […] Punctate staining was recorded in a masked fashion with the standard National Eye Institute grading system of 0-3 for each of the five areas of the cornea. […]
Real-Time PCR: Bulbar and palpebral conjunctiva, cornea and trigeminal ganglion were harvested from mice and stored in TRIzol reagent (Invitrogen, Carlsbad, Calif.) at −80° C. until RNA was isolated and reverse-transcribed using RNeasy micro kit (Qiagen, Valencia, Calif.) and SuperScript III kit (Invitrogen). […] Samples were analyzed using a real-time PCR system (LightCycler 480 II System; Roche Applied Science, Indianapolis, Ind.), and results were analyzed by the comparative threshold cycle method, using GAPDH as an internal control.

DED mice [2] = assay: Mouse model of DED, topical NK1R antagonist: flow cytometry of cornea, draining lymph nodes and conjunctivae; type: in vivo, C57BL/6 mice; settings: topical 1 μg/μl three times per day, day 14; for frequencies of MHC-II^hi CD11b^+ cells in the cornea: day 4 to 14; for frequencies of TH17 cells in the DLNs / frequencies of mature MHC-II^hi CD11b^+ cells in the DLNs / level of MHC-II expression by CD11b^+ cells in the DLNs: vs PBS
Procedure: Induction of Dry Eye Disease (DED): DED was induced by housing the mice in a low-humidity (relative humidity: <20%) controlled environment chamber (CEC) with constant airflow of 15 L/min and temperature of 21 to 23° C. for 14 days. Age- and sex-matched mice housed in room air conditions served as controls. Corneal epithelial disease was evaluated using fluorescein (Sigma-Aldrich) staining and scored using the National Eye Institute grading system (NEI, Bethesda, Md.; Chen Y. et al. IFN-gamma-Expressing TH17 Cells Are Required for Development of Severe Ocular Surface Autoimmunity. J Immunol 2017, 199:1163-9). 1 μl of 2.5% fluorescein was applied into the lateral conjunctival sac of the mice and after 3 minutes corneas were examined with a slit lamp biomicroscope under cobalt blue light. Punctate staining was recorded in a masked fashion with the standard National Eye Institute grading system of 0-3 for each of the five areas of the cornea.
Topical Treatment with NK1R Antagonist: Mice were assigned to one of four groups (n=5 each). 1 μg/μl of NK1R antagonists CP-99,994, L-733,060 (R&D systems, Minneapolis, MN) or PBS was administered topically three times per day from day 4 to day 14 after DED induction. Untreated DED mice served as controls.
Single Cell Suspension Preparation and Flow Cytometry: Submandibular and cervical draining lymph nodes (DLNs) were harvested and single cell suspensions were prepared. Cells were stimulated with phorbol 12-myristate 13-acetate (PMA, 50 ng/mL; Sigma-Aldrich) and Ionomycin (500 ng/mL; Sigma-Aldrich) for 6 hours in the presence of a commercial protein transport inhibitor (0.7 μL/100 μL media, Golgistop; BD Biosciences, San Jose, Calif.). Conjunctivae were harvested by lifting at the junction of bulbar and palpebral conjunctiva and dissecting along both bulbar and palpebral insertion points (Vannas Scissors; Storz, Bausch & Lomb). Conjunctiva samples were cultured in RPMI (Thermo Fisher Scientific, Waltham, Mass.) supplemented with 10% fetal bovine serum (FBS) and stimulated with PMA (50 ng/mL; Sigma-Aldrich) and Ionomycin (500 ng/mL; Sigma-Aldrich) in the presence of a protein transport inhibitor (0.7 μL/100 μL media, Golgistop; BD Biosciences) at 37° C. for 24 hours. Harvested corneas were digested in RPMI media containing 2 mg/ml collagenase type IV (Sigma-Aldrich) and 2 mg/ml DNase I (Roche) for 1 h at 37° C. The suspension was then filtered through a 70-μm cell strainer. Single-cell suspensions of DLN and cornea were stained with the following antibodies: Brilliant Violet 421-conjugated anti-mouse I-A/I-E (MHC-II), PE-conjugated anti-CD11c (BD Pharmingen, San Jose, Calif.), PerCP/Cy5.5-conjugated anti-CD11b, FITC-conjugated anti-CD4 (BioLegend, San Diego, Calif.), and PE-conjugated anti-interleukin 17A (eBioscience, San Diego, Calif.). Intranuclear staining with PE/Cy7-conjugated anti-Foxp3 (eBioscience) was performed after fixation and permeabilization of cells. Control samples were stained with appropriate isotype-matched antibodies. Stained cells were examined using an LSRII Flow Cytometer (BD Biosciences, Franklin Lakes, N.J., USA), and data were analyzed using commercial Summit software (Summit v4.3; Dako Colorado, Inc., Fort Collins, Colo.).

ocular redness [3] = assay: Rabbit model of non-allergic (non-infectious) ocular redness induced by dapiprazole, Ocular Redness Index (ORI); type: in vivo
Excerpt: (§1) An Image J-based, objective quantification method of ocular redness severity was developed without relying on ophthalmologists' subjective scoring (Amparo, et al. “The Ocular Redness Index: A Novel Automated Method for Measuring Ocular Injection.” Investigative Ophthalmology & Visual Science, 2013, pp. Quick submit: 2017-06-18T21:14:33-0400). This digital scoring method automatically analyzes patient eye images and gives the score as Ocular Redness Index (ORI), which ranges on a continuous centesimal scale from 0 to 100, with 100 the most severe redness. This method has been used in the animal models of ocular redness to evaluate the severity of redness.
(§2) The results obtained can be seen in FIGS. 10-14. In the evaluation of ocular redness in animal models using Ocular Redness Index (ORI) with Image J the following steps. Step 1: The conjunctival image was captured by means of a digital camera and was recorded as an RGB color JPEG image (3264×2448 pixels). […] Step 3: An ROI (Region Of Interest, area inside the yellow circle) was selected as the evaluation area by user, and the program read the red-green-blue (RGB) values of each pixel, converting it to huesaturation-value (HSV) space, and ultimately converted these values into a numeric centesimal value for redness in the selected area automatically. […]

ocular redness [4] = assay: Guinea pig model of allergic ocular redness induced by histamine, Ocular Redness Index (ORI); type: in vivo; settings: topical 1.0 mg/ml with 1.5 mg/ml histamine instillation, 20 μl; 1 hour; vs untreated induced control
Excerpt: as §1, §2

[5] = prevents use as an eye drop formulation; cited from earlier work
[6] = test system: corneal epithelial wound healing; settings: subconjunctival injection, diabetic mice; cited from earlier work

Row | Compound | CFS scores and DED severity (DED mice [1]) | mRNA expression levels of IL-17 in conjunctivae (IL-17) | frequencies of MHC-II^hi CD11b^+ cells in the cornea (DED mice [2]) | frequencies of TH17 cells in the DLNs (DED mice [2]) | frequencies of mature MHC-II^hi CD11b^+ cells in the DLNs (DED mice [2]) | level of MHC-II expression by CD11b^+ cells in the DLNs (DED mice [2]) | also measured
1 | COc1ccccc1CN[C@H]1CCCN[C@H]1c1ccccc1 [CP-99,994, (2S,3S)-N-[(2-Methoxyphenyl)methyl]-2-phenyl-3-piperidinamine dihydrochloride] | significantly reduced CFS scores and DED severity | significant reduction | significantly lower | significantly decreased | significant decrease | significant decrease | –
2 | Ic1ccccc1CN[C@@H]1C2CCN(CC2)[C@@H]1C(c1ccccc1)c1ccccc1 (racemic) [L-703,606] | – | – | – | – | – | – | ocular redness (change in ORI score) (ocular redness [3]; topical 1.0 mg/ml with 5% dapiprazole instillation, 40 μl, 1 hour, vs untreated induced control): rapidly and consistently ameliorating the ocular redness; ocular redness (change in ORI score) (ocular redness [4]): rapidly and consistently ameliorating the ocular redness
3 | Cc1ccccc1N1CCN(CCc2nnc3n2CCCC3)CC1 [dapiprazole] | – | – | – | – | – | – | change in ORI score after induction (ocular redness [3]; 5% dapiprazole, 40 μl topical, series of increasing concentrations, 1-hour observation, vs PBS): highest increase in ORI score
4 | C[C@@H](O[C@H]1OCCN(Cc2n[nH]c(=O)[nH]2)[C@H]1c1ccc(F)cc1)c1cc(C(F)(F)F)cc(C(F)(F)F)c1 [MK-869, 5-[[(2R,3S)-2-[(1R)-[3,5-Bis(trifluoromethyl)phenyl]ethoxy]-3-(4-fluorophenyl)-4-morpholinylinyl]methyl]-1,2-dihydro-3H-1,2,4-triazol-3-one] | – | – | – | – | – | – | water solubility [5]: Poor water solubility
5 | FC(F)(F)c1cc(CO[C@H]2CCCN[C@H]2c2ccccc2)cc(C(F)(F)F)c1 [L-733,060, (2S,3S)-3-[[3,5-bis(Trifluoromethyl)phenyl]methoxy]-2-phenylpiperidine hydrochloride] | significantly reduced CFS scores and DED severity | significant reduction | significantly lower | significantly decreased | significant decrease | significant decrease | protective role of SP on epithelial healing [6]: significantly inhibits the protective role of SP on epithelial healing
